According to patent US12673944B2, “Compounds having inhibitory activity against glucosylceramide synthase or pharmaceutically acceptable salt thereof, processes for preparing the same, and pharmaceutical compositions comprising the same” (YUHAN CORPORATION, priority 2019, dated 2026):

Tests used:
[1] = molecular target: T1, glucosylceramide synthase (GCS) (Homo sapiens, UniProt Q16739); experiment: GCS enzyme inhibition assay (A549 cell lysate, NBD C6-ceramide, HPLC fluorescence); assay type: biochemical; details: inhibitory activity against GCS, 37° C., 90 minutes
T1 construct: The obtained supernatant was used; host or cells: A549 cells (lysate supernatant after sonication)
T1 sequence (Q16739 1-394): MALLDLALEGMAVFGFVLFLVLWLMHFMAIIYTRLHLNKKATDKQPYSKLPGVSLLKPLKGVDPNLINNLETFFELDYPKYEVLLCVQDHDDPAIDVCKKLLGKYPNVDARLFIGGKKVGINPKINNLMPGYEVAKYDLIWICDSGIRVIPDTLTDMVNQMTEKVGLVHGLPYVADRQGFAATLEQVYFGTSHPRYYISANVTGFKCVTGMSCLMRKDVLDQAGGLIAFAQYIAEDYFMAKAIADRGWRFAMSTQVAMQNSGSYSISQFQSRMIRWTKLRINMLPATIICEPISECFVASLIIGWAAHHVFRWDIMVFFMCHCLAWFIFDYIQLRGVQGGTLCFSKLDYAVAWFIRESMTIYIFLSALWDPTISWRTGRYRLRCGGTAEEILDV
In short: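 A549 cell lysate (50 mM HEPES pH 7.3) served as GCS source; reactions ran 90 min at 37° C, were stopped with chloroform/methanol and lipids extracted. Activity taken as GlcCer/(Cer+GlcCer) peak area, normalised between DMSO and ibiglustat controls.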

[2] = test system: GM1 production in Jurkat cells; experiment: cells; assay type: cell-based; details: Homo sapiens, Jurkat, 72 h

Row | SMILES | IC50 [1] | IC50 [2]
1 | O=C(NC1CCOc2cc(-c3ccc(Cl)cc3)ccc21)O[C@@H]1CN2CCC1CC2 (stereo partly drawn) [Example 14, (S)-quinuclidin-3-yl (7-(4-chlorophenyl)chroman-4-yl)carbamate] | 9.67 nM | 42.1 nM
2 | Cc1ccc(-c2ccc3c(c2)OCC(C)(C)C3NC(=O)O[C@@H]2CN3CCC2CC3)c(F)c1 (stereo partly drawn) [Example 225, (S)-quinuclidin-3-yl (7-(2-fluoro-4-methylphenyl)-3,3-dimethylchroman-4-yl)carbamate] | 0.45 nM | 1.7 nM
3 | C=Cc1cccc(-c2ccc3c(c2)OCC(C)(C)C3NC(=O)O[C@@H]2CN3CCC2CC3)c1 (stereo partly drawn) [Example 244, (S)-quinuclidin-3-yl (3,3-dimethyl-7-(3-vinylphenyl)chroman-4-yl)carbamate] | 0.42 nM | 0.6 nM
4 | O=C(NC1CCOc2cc(-c3coc4ccccc34)ccc21)O[C@@H]1CN2CCC1CC2 (stereo partly drawn) [Example 43, (S)-quinuclidin-3-yl (7-(benzofuran-3-yl)chroman-4-yl)carbamate] | 0.58 nM | 0.02 nM
5 | O=C(NC1CCSc2cc(-c3ccc4c(c3)OC(F)(F)O4)ccc21)O[C@@H]1CN2CCC1CC2 (stereo partly drawn) [Example 327, (S)-quinuclidin-3-yl (7-(2,2-difluorobenzo[d][1,3]dioxol-5-yl)thiochroman-4-yl)carbamate] | 2.7 nM | 37.6 nM
6 | CC1(C)COc2cc(-c3cccc(C(F)(F)F)c3Cl)ccc2C1NC(=O)O[C@@H]1CN2CCC1CC2 (stereo partly drawn) [Example 138, (S)-quinuclidin-3-yl (7-(2-chloro-3-(trifluoromethyl)phenyl)-3,3-dimethylchroman-4-yl)carbamate] | 0.63 nM | 1.57 nM
7 | O=C(NC1CCOc2cc(-c3cccc4[nH]ncc34)ccc21)O[C@@H]1CN2CCC1CC2 (stereo partly drawn) [Example 48, (S)-quinuclidin-3-yl (7-(1H-indazol-4-yl)chroman-4-yl)carbamate] | 6.27 nM | 42 nM
8 | Cc1ccc(-c2ccc3c(c2)OCC(C)(C)C3NC(=O)O[C@@H]2CN3CCC2CC3)c(F)n1 (stereo partly drawn) [Example 248, (S)-quinuclidin-3-yl (7-(2-fluoro-6-methylpyridin-3-yl)-3,3-dimethylchroman-4-yl)carbamate] | 0.86 nM | 29.6 nM
9 | CCCCOc1cccc(F)c1-c1ccc2c(c1)OCC(C)(C)C2NC(=O)O[C@@H]1CN2CCC1CC2 (stereo partly drawn) [Example 143, (S)-quinuclidin-3-yl (7-(2-butoxy-6-fluorophenyl)-3,3-dimethylchroman-4-yl)carbamate] | 0.78 nM | 1.46 nM
10 | CC1(C)COc2cc(-c3ccccc3OC(F)(F)F)ccc2C1NC(=O)O[C@@H]1CN2CCC1CC2 (stereo partly drawn) [Example 157, (S)-quinuclidin-3-yl (3,3-dimethyl-7-(2-(trifluoromethoxy)phenyl)chroman-4-yl)carbamate] | 0.48 nM | 0.12 nM
11 | COc1ncc(-c2ccc3c(c2)OCC(C)(C)C3NC(=O)O[C@@H]2CN3CCC2CC3)cc1C (stereo partly drawn) [Example 254, (S)-quinuclidin-3-yl (7-(6-methoxy-5-methylpyridin-3-yl)-3,3-dimethylchroman-4-yl)carbamate] | 1.7 nM | 17.4 nM
12 | O=C(NC1CCOc2cc(-c3cccc4cccnc34)ccc21)O[C@@H]1CN2CCC1CC2 (stereo partly drawn) [Example 56, (S)-quinuclidin-3-yl (7-(quinolin-8-yl)chroman-4-yl)carbamate] | 1.38 nM | 6.03 nM
13 | CC1(C)COc2cc(-c3ccccc3C#N)ccc2C1NC(=O)O[C@@H]1CN2CCC1CC2 (stereo partly drawn) [Example 189, (S)-quinuclidin-3-yl (7-(2-cyanophenyl)-3,3-dimethylchroman-4-yl)carbamate] | 0.36 nM | 0.04 nM
14 | CC1(C)COc2cc(-c3cccc(CC#N)c3)ccc2C1NC(=O)O[C@@H]1CN2CCC1CC2 (stereo partly drawn) [Example 281, (S)-quinuclidin-3-yl (7-(3-(cyanomethyl)phenyl)-3,3-dimethylchroman-4-yl)carbamate] | 0.65 nM | 6.9 nM
15 | CC1(NC(=O)O[C@@H]2CN3CCC2CC3)CCOc2cc(-c3ccccc3C#N)ccc21 (stereo partly drawn) [Example 309, (S)-quinuclidin-3-yl (7-(2-cyanophenyl)-4-methylchroman-4-yl)carbamate] | 5.77 nM | 37.2 nM
16 | Cc1cncc(-c2ccc3c(c2)OCC(C)(C)C3NC(=O)O[C@@H]2CN3CCC2CC3)c1 (stereo partly drawn) [Example 221, (S)-quinuclidin-3-yl (3,3-dimethyl-7-(5-methylpyridin-3-yl)chroman-4-yl)carbamate] | 0.74 nM | 2.8 nM

Row | SMILES | IC50 [1] | IC50 [2]
17 | Cn1ncc2c(-c3ccc4c(c3)OCC(C)(C)C4NC(=O)O[C@@H]3CN4CCC3CC4)cccc21 (stereo partly drawn) [Example 159, (S)-quinuclidin-3-yl (3,3-dimethyl-7-(1-methyl-1H-indazol-4-yl)chroman-4-yl)carbamate] | 0.57 nM | 0.55 nM
18 | CCc1cccc(-c2cc3c(cc2OC)C(NC(=O)O[C@@H]2CN4CCC2CC4)C(C)(C)CO3)c1 (stereo partly drawn) [Example 352, (S)-quinuclidin-3-yl (7-(3-ethylphenyl)-6-methoxy-3,3-dimethylchroman-4-yl)carbamate] | 0.38 nM | 2 nM
19 | CC1(C)COc2ccc(-c3cccc(F)c3)cc2C1NC(=O)O[C@@H]1CN2CCC1CC2 (stereo partly drawn) [Example 101, (S)-quinuclidin-3-yl (6-(3-fluorophenyl)-3,3-dimethylchroman-4-yl)carbamate] | 9.2 nM | 65.9 nM
20 | CC(C)(C)c1cccc(-c2ccc3c(c2)OCC(C)(C)C3NC(=O)O[C@@H]2CN3CCC2CC3)c1 (stereo partly drawn) [Example 152, (S)-quinuclidin-3-yl (7-(3-(tert-butyl)phenyl)-3,3-dimethylchroman-4-yl)carbamate] | 0.91 nM | 0.22 nM
21 | CCOc1ccccc1-c1ccc2c(c1)OCC(C)(C)C2NC(=O)O[C@@H]1CN2CCC1CC2 (stereo partly drawn) [Example 186, (S)-quinuclidin-3-yl (7-(2-ethoxyphenyl)-3,3-dimethylchroman-4-yl)carbamate] | 0.38 nM | 2.81 nM
22 | CC1(C)COc2cc(-c3cccc4cn[nH]c34)ccc2C1NC(=O)O[C@@H]1CN2CCC1CC2 (stereo partly drawn) [Example 178, (S)-quinuclidin-3-yl (7-(1H-indazol-7-yl)-3,3-dimethylchroman-4-yl)carbamate] | 1.14 nM | 4.36 nM
23 | Cc1ccc(-c2ccc3c(c2)OCC(C)(C)C3NC(=O)O[C@@H]2CN3CCC2CC3)cc1Cl (stereo partly drawn) [Example 226, (S)-quinuclidin-3-yl (7-(3-chloro-4-methylphenyl)-3,3-dimethylchroman-4-yl)carbamate] | 0.71 nM | 1.3 nM
24 | O=C(NC1CCOc2ccc(-c3ccc(OC(F)(F)F)cc3)cc21)O[C@@H]1CN2CCC1CC2 (stereo partly drawn) [Example 94, (S)-quinuclidin-3-yl (6-(4-(trifluoromethoxy)phenyl)chroman-4-yl)carbamate] | 8.13 nM | 408 nM
25 | CC(C)COc1ccc(-c2ccc3c(c2)OCC(C)(C)C3NC(=O)O[C@@H]2CN3CCC2CC3)cc1 (stereo partly drawn) [Example 260, (S)-quinuclidin-3-yl (7-(4-isobutoxyphenyl)-3,3-dimethylchroman-4-yl)carbamate] | 0.51 nM | 0.3 nM
26 | COc1cccc(-c2ccc3c(c2)OCC(C)(C)C3NC(=O)O[C@@H]2CN3CCC2CC3)c1OC (stereo partly drawn) [Example 127, (S)-quinuclidin-3-yl (7-(2,3-dimethoxyphenyl)-3,3-dimethylchroman-4-yl)carbamate] | 2.11 nM | 14.2 nM
27 | COc1cccc(-c2cc3c(cc2OC)C(NC(=O)O[C@@H]2CN4CCC2CC4)C(C)(C)CO3)c1 (stereo partly drawn) [Example 354, (S)-quinuclidin-3-yl (6-methoxy-7-(3-methoxyphenyl)-3,3-dimethylchroman-4-yl)carbamate] | 0.63 nM | 3.1 nM
28 | O=C(NC1CCOc2cc(-c3ccc(OCC4CC4)nc3)ccc21)O[C@@H]1CN2CCC1CC2 (stereo partly drawn) [Example 81, (S)-quinuclidin-3-yl (7-(6-(cyclopropylmethoxy)pyridin-3-yl)chroman-4-yl)carbamate] | 0.94 nM | 14.8 nM
29 | CC1(C)COc2cc(-c3cnc(C4CC4)nc3)ccc2C1NC(=O)O[C@@H]1CN2CCC1CC2 (stereo partly drawn) [Example 283, (S)-quinuclidin-3-yl (7-(2-cyclopropylpyrimidin-5-yl)-3,3-dimethylchroman-4-yl)carbamate] | 2.2 nM | 25.6 nM
30 | COc1ccc(F)cc1-c1ccc2c(c1)OCC(C)(C)C2NC(=O)O[C@@H]1CN2CCC1CC2 (stereo partly drawn) [Example 252, (S)-quinuclidin-3-yl (7-(5-fluoro-2-methoxyphenyl)-3,3-dimethylchroman-4-yl)carbamate] | 0.54 nM | 1.4 nM
31 | CN1C(=O)COc2ccc(-c3ccc4c(c3)OCCC4NC(=O)O[C@@H]3CN4CCC3CC4)cc21 (stereo partly drawn) [Example 74, (S)-quinuclidin-3-yl (7-(4-methyl-3-oxo-3,4-dihydro-2H-benzo[b][1,4]oxazin-6-yl)chroman-4-yl)carbamate] | 5.03 nM | 44.3 nM
32 | Cc1cc(C)c(Cl)c(-c2ccc3c(c2)OCC(C)(C)C3NC(=O)O[C@@H]2CN3CCC2CC3)c1 (stereo partly drawn) [Example 285, (S)-quinuclidin-3-yl (7-(2-chloro-3,5-dimethylphenyl)-3,3-dimethylchroman-4-yl)carbamate] | 1.96 nM | 9.7 nM
